Experimental data from patent US20220202739A1, “ENDOCANNABINOID MIMETIC AND ANTI-INFLAMMATORY COMPOUND CONTAINING COMPOSITIONS, METHODS OF PREPARATION AND USES THEREOF” (priority 2019, published 2022).

Legend:
Format in all cases: cell-based, human
Settings in all cases: pooled keratinocytes, 20 ppm, 24 hr
[1] = tested on: FLG; assay: Gene expression custom microarray, pooled keratinocyte line (Example 3): FLG
Description: (§1) Cell cultures: Received and began culture of pooled keratinocyte line from Promocell (C-12006; Lot #448Z026). Cells were seeded into a 75 cm2 flask and 2 6 well dishes for expansion and exposure per manufacturer's protocol using Keratinocyte Growth Medium (C2011B), Keratinocyte Supplement Mix (C39016) and CaCl (C34005). 2 ml of prepared solution were added to each of the 6 wells and 7 ml was added to the 75 cm2 flask.
(§2) Experimental phase: When the appropriate quantity of cells were grown, they were detached as described above, but at the final step were seeded into each well of one or more 6 well dishes. Each well received 2 ml of the cells suspended in suspension so they were seeded equally. The dishes were returned to the incubator until 85-95% confluency is reached.
(§3) It was at this stage that all wells were rinsed in PBS after aspirating the growth media. The compound(s) to be tested were previously mixed into a suitable solvent (e.g., DMSO or ethanol) that can be diluted to the desired concentration of test compound (10 μl) in the culture wells without exceeding maximum solvent concentrations and adversely effecting cell viability, and mixed with Basal Keratinocyte Media. NOTE: Standard maximum levels of solvent are 0.1% for DMSO and 0.5% for ETOH. The concentration for each tested compound/natural extract is generally listed in the left-hand column of Table 4. For certain compositions (e.g., compositions 15 and 16), other concentrations were used and are noted in the body of Table 4.
(§4) Every 2 wells on the 6 well plate served as a biological replicate for the purposes of RNA isolation and genetic expression evaluations making each 6 well dish an n=3 for the test compound contained in the media. […]
(§5) At the end of the 24 hr time period, the plates were removed from the incubator, the test media aspirated, and the cells rinsed with PBS. […] Allow 1 minute for saturation of the membrane and then centrifuge for 2 minutes to complete the RNA elution. • Quantify the quantity of RNA and store at −20 C° until use (no more than 1 month) […]

[2] = tested on: IL1A; assay: Gene expression custom microarray, pooled keratinocyte line (Example 3): IL1A
Description: as §1, §2, §3, §4, §5

[3] = tested on: NFKB1; assay: Gene expression custom microarray, pooled keratinocyte line (Example 3): NFKB1
Description: NOTE: Standard maximum levels of solvent are 0.1% for DMSO and 0.5% for ETOH.
The plates were returned to the incubator for 24 hrs.
At the end of the 24 hr time period, the plates were removed from the incubator, the test media aspirated, and the cells rinsed with PBS. […] Pipet multiple times to ensure thorough lysis. Add lysed cells to the collection tube. • Add 350 μl of 70% ETOH to the collection tube and mix thoroughly. • Pipet the generated lysate onto the spin column placed in a new 2 ml tube. Centrifuge for 30 sec between 8,000 and 10,000 g. • Place the spin column containing the now bound RNA, in a new 2 ml tube. Add 700 μl of low stringency wash solution to the spin column. Centrifuge for 30 sec between 8,000 and 10,000 g. Discard the flow through and replace spin column. • Add 80 μl of DNase I dilution to the spin column and incubate at room temperature for 15 minutes. • Add 700 μl of high stringency wash solution to the column and centrifuge for 30 sec between 8,000 and 10,000 g. Discard flow through. • Add 700 μl of low stringency wash solution to the column and centrifuge for 60 sec between 8,000 and 10,000 g. Discard flow through. • Centrifuge for 2 minutes to remove residual wash solution. • Transfer spin column to new 1.5 ml collection tube and add 80 μl of elution solution to the column. Allow 1 minute for saturation of the membrane and then centrifuge for 2 minutes to complete the RNA elution. • Quantify the quantity of RNA and store at −20 C° until use (no more than 1 month)

Row | Structure (SMILES) | ↑FLG gene expression, fold increase or decrease vs untreated cells [1] [fold] | ↓IL1A gene expression, fold increase or decrease vs untreated cells [2] [fold] | ↓NFKB1 gene expression, fold increase or decrease vs untreated cells [3] [fold]
1 | CCCCCCCCCCCCCCCC(=O)NCCO [N-palmitoylethanolamide] | 28.6 | −1.2 | −2.2
2 | CC(C)[C@]12O[C@H]1[C@@H]1O[C@]13[C@]1(O[C@H]1C[C@H]1C4=C(CC[C@@]13C)C(=O)OC4)[C@@H]2O [Triptolide] | 14.4 | −14 | −4.2
3 | C=C(C)[C@@H]1CCC(C)=C[C@H]1c1c(O)cc(CCCCC)cc1O [CBD, cannabidiol, reference compound] | 1.1 | 2.3 | 2.5
